Reference: US10934296B2, “4-imidazopyridazin-1-yl-benzamides as Btk inhibitors” (Merck Sharp & Dohme B.V., priority 2011, dated 2021)

target: Btk enzyme (His-Btk) (Homo sapiens (Human), UniProt Q06187); assay: Btk enzyme activity, IMAP fluorescence polarization assay; conditions: 60 min pre-incubation, 5 μM ATP, bin bounds in nM
Sequence (Q06187 whole entry): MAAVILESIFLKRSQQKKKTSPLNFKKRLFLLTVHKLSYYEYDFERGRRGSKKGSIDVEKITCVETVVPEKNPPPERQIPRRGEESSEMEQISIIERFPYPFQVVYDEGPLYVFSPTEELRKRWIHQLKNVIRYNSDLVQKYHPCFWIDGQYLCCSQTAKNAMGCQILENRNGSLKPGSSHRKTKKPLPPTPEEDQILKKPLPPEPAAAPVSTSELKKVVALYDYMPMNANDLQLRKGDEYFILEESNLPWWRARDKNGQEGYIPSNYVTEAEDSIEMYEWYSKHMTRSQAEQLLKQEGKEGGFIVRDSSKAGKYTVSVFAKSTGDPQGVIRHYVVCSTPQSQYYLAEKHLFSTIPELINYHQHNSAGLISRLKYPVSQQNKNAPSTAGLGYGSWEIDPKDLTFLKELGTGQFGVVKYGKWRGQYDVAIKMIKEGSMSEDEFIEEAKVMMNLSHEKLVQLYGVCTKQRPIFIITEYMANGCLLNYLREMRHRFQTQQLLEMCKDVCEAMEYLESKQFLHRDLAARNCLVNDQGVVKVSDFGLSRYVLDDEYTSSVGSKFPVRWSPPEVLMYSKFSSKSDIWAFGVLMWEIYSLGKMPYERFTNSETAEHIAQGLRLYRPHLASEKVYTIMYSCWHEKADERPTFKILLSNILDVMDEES

How did the “EC50 Btk activity values” turn out when `Nc1nccn2c([C@@H]3CCCN3C(=O)c3ccnc(Cl)n3)nc(-c3ccc(C(=O)Nc4ccccn4)c(F)c3)c12` [Example 84, (S)-4-(8-amino-3-(1-(2-chloropyrimidine-4-carbonyl)pyrrolidin-2-yl)imidazo[1,5-a]pyrazin-1-yl)-2-fluoro-N-(pyridin-2-yl)benzamide] was run?
Its value is <100 nM.

`CC#CC(=O)N1CCCC[C@H]1c1nc(-c2ccc(C(=O)Nc3nccc(C)n3)cc2)c2c(N)nccn12` [Example 89, (S)-4-(8-amino-3-(1-but-2-ynoylpiperidin-2-yl)imidazo[1,5-a]pyrazin-1-yl)-N-(4-methylpyrimidin-2-yl)benzamide] was tested. Which “EC50 Btk activity values” did it give?
The value was <100 nM.

How did the “EC50 Btk activity values” turn out when `COC/C=C/C(=O)NCc1nc(-c2ccc(C(=O)Nc3ccccn3)cc2)c2c(N)nccn12` [Example 95, (E)-4-(8-amino-3-((4-methoxybut-2-enamido)methyl)imidazo[1,5-a]pyrazin-1-yl)-N-(pyridin-2-yl)benzamide] was run?
The value was <100 nM.

How did the “EC50 Btk activity values” turn out when `CC#CC(=O)N1CCC[C@H]1c1nc(-c2ccc(C(=O)Nc3cc(N4CCCC4)ccn3)cc2)c2c(N)nccn12` [Example 96, (S)-4-(8-amino-3-(1-but-2-ynoylpyrrolidin-2-yl)imidazo[1,5-a]pyrazin-1-yl)-N-(4-(pyrrolidin-1-yl)pyridin-2-yl)benzamide] was run?
Its value is <100 nM.

How did the “EC50 Btk activity values” turn out when `COC/C=C/C(=O)N1CCC[C@H]1c1nc(-c2ccc(C(=O)Nc3cc(C#N)ccn3)cc2)c2c(N)nccn12` [Example 98, (S,E)-4-(8-amino-3-(1-(4-methoxybut-2-enoyl)pyrrolidin-2-yl)imidazo[1,5-a]pyrazin-1-yl)-N-(4-cyanopyridin-2-yl)benzamide] was run?
The value was <100 nM.

For `CC#CC(=O)N1CCC[C@H]1c1nc(-c2ccc(C(=O)Nc3ccccn3)c(OC)c2)c2c(N)nccn12` [Example 99, (S)-4-(8-amino-3-(1-but-2-ynoylpyrrolidin-2-yl)imidazo[1,5-a]pyrazin-1-yl)-2-methoxy-N-(pyridin-2-yl)benzamide], which “EC50 Btk activity values” is on record?
The value was <100 nM.

`COC/C=C/C(=O)N1CCC[C@H]1c1nc(-c2ccc(C(=O)Nc3ccccn3)c(OC)c2)c2c(N)nccn12` [Example 103, (S,E)-4-(8-amino-3-(1-(4-methoxybut-2-enoyl)pyrrolidin-2-yl)imidazo[1,5-a]pyrazin-1-yl)-2-methoxy-N-(pyridin-2-yl)benzamide] was tested. Which “EC50 Btk activity values” did it give?
The value was <100 nM.

With `C[C@H](NC(=O)c1ccnc(Cl)n1)c1nc(-c2ccc(C(=O)Nc3ccccn3)cc2)c2c(N)nccn12` [Example 105, (S)-N-(1-(8-amino-1-(4-(pyridin-2-ylcarbamoyl)phenyl)imidazo[1,5-a]pyrazin-3-yl)ethyl)-2-chloropyrimidine-4-carboxamide] as the compound, how does the “EC50 Btk activity values” read?
The value was <100 nM.

For `CC#CC(=O)N1CCC[C@H]1c1nc(-c2ccc(C(=O)Nc3cc(F)ccn3)cc2)c2c(N)nccn12` [Example 106, (S)-4-(8-amino-3-(1-but-2-ynoylpyrrolidin-2-yl)imidazo[1,5-a]pyrazin-1-yl)-N-(4-fluoropyridin-2-yl)benzamide], which “EC50 Btk activity values” is on record?
Its value is <100 nM.

For `CC#CC(=O)NCc1nc(-c2ccc(C(=O)Nc3ccccn3)cc2)c2c(N)nccn12` [Example 112, 4-(8-amino-3-(but-2-ynamidomethyl)imidazo[1,5-a]pyrazin-1-yl)-N-(pyridin-2-yl)benzamide], which “EC50 Btk activity values” is on record?
The value was <100 nM.

With `CC#CC(=O)N(C)[C@@H](C)c1nc(-c2ccc(C(=O)Nc3cc(CCC)ccn3)cc2)c2c(N)nccn12` [Example 113, (S)-4-(8-amino-3-(1-(N-methylbut-2-ynamido)ethyl)imidazo[1,5-a]pyrazin-1-yl)-N-(4-propylpyridin-2-yl)benzamide] as the compound, how does the “EC50 Btk activity values” read?
The value was <100 nM.

For `CCCc1ccnc(NC(=O)c2ccc(-c3nc([C@@H]4CCCCN4C(=O)/C=C/COC)n4ccnc(N)c34)cc2F)c1` [Example 114, (S,E)-4-(8-amino-3-(1-(4-methoxybut-2-enoyl)piperidin-2-yl)imidazo[1,5-a]pyrazin-1-yl)-2-fluoro-N-(4-propylpyridin-2-yl)benzamide], which “EC50 Btk activity values” is on record?
Its value is <100 nM.

For `Nc1nccn2c([C@@H]3CCCN3C(=O)c3ccnc(Cl)n3)nc(-c3ccc(C(=O)Nc4cc(C(F)(F)F)ccn4)cc3)c12` [Example 119, (S)-4-(8-amino-3-(1-(2-chloropyrimidine-4-carbonyl)pyrrolidin-2-yl)imidazo[1,5-a]pyrazin-1-yl)-N-(4-(trifluoromethyl)pyridin-2-yl)benzamide], which “EC50 Btk activity values” is on record?
The value was <100 nM.

same assay, conditions: 60 min pre-incubation, 5 μM ATP, bin bounds in μM

With `COC/C=C/C(=O)N1CCCC[C@H]1c1nc(-c2ccc(C(=O)Nc3ccccn3)cc2C)c2c(N)nccn12` [Example 85, 4-(8-amino-3-((S)-1-((E)-4-methoxybut-2-enoyl)piperidin-2-yl)imidazo[1,5-a]pyrazin-1-yl)-3-methyl-N-(pyridin-2-yl)benzamide] as the compound, how does the “EC50 Btk activity values” read?
The value was <1000 nM.

For `COC/C=C/C(=O)N1CCCC[C@H]1c1nc(-c2ccc(C(=O)Nc3ccncn3)cc2)c2c(N)nccn12` [Example 86, (S,E)-4-(8-amino-3-(1-(4-methoxybut-2-enoyl)piperidin-2-yl)imidazo[1,5-a]pyrazin-1-yl)-N-(pyrimidin-4-yl)benzamide], which “EC50 Btk activity values” is on record?
The value was <1000 nM.

With `CCCc1ccnc(NC(=O)c2ccc(-c3nc([C@@H]4CCCN4C(=O)/C=C/COC)n4ccnc(N)c34)c(C)c2)c1` [Example 87, 4-(8-amino-3-((S)-1-((E)-4-methoxybut-2-enoyl)pyrrolidin-2-yl)imidazo[1,5-a]pyrazin-1-yl)-3-methyl-N-(4-propylpyridin-2-yl)benzamide] as the compound, how does the “EC50 Btk activity values” read?
The value was <1000 nM.

With `COC/C=C/C(=O)N1CCCC[C@H]1c1nc(-c2ccc(C(=O)Nc3nccc(C)n3)cc2)c2c(N)nccn12` [Example 88, (S,E)-4-(8-amino-3-(1-(4-methoxybut-2-enoyl)piperidin-2-yl)imidazo[1,5-a]pyrazin-1-yl)-N-(4-methylpyrimidin-2-yl)benzamide] as the compound, how does the “EC50 Btk activity values” read?
Its value is <1000 nM.

Which “EC50 Btk activity values” does the source give for `Nc1nccn2c([C@@H]3CCCCN3C(=O)c3ccnc(Cl)n3)nc(-c3ccc(C(=O)Nc4ncccn4)cc3)c12` [Example 90, (S)-4-(8-amino-3-(1-(2-chloropyrimidine-4-carbonyl)piperidin-2-yl)imidazo[1,5-a]pyrazin-1-yl)-N-(pyrimidin-2-yl)benzamide] here?
Its value is <1000 nM.

Which “EC50 Btk activity values” does the source give for `C=C(C(=O)N1CCC[C@H]1c1nc(-c2ccc(C(=O)Nc3ccccn3)cc2)c2c(N)nccn12)C(F)(F)F` [Example 92, (S)-4-(8-amino-3-(1-(2-(trifluoromethyl)acryloyl)pyrrolidin-2-yl)imidazo[1,5-a]pyrazin-1-yl)-N-(pyridin-2-yl)benzamide] here?
The value was <1000 nM.

How did the “EC50 Btk activity values” turn out when `N#CCN1CCC[C@H]1c1nc(-c2ccc(C(=O)Nc3ccccn3)cc2)c2c(N)nccn12` [Example 94, (S)-4-(8-amino-3-(1-(cyanomethyl)pyrrolidin-2-yl)imidazo[1,5-a]pyrazin-1-yl)-N-(pyridin-2-yl)benzamide] was run?
Its value is <1000 nM.

With `Nc1nccn2c([C@@H]3CCCN3C(=O)/C=C/c3ccccc3)nc(-c3ccc(C(=O)Nc4ccccn4)cc3)c12` [Example 104, (S,E)-4-(8-amino-3-(1-cinnamoylpyrrolidin-2-yl)imidazo[1,5-a]pyrazin-1-yl)-N-(pyridin-2-yl)benzamide] as the compound, how does the “EC50 Btk activity values” read?
Its value is <1000 nM.

target: Lck enzyme (Homo sapiens (Human), UniProt P06239); assay: Lck enzyme activity, IMAP fluorescence polarization assay; conditions: 60 min pre-incubation, 6 μM ATP, bin bounds in μM
Sequence (P06239 whole entry): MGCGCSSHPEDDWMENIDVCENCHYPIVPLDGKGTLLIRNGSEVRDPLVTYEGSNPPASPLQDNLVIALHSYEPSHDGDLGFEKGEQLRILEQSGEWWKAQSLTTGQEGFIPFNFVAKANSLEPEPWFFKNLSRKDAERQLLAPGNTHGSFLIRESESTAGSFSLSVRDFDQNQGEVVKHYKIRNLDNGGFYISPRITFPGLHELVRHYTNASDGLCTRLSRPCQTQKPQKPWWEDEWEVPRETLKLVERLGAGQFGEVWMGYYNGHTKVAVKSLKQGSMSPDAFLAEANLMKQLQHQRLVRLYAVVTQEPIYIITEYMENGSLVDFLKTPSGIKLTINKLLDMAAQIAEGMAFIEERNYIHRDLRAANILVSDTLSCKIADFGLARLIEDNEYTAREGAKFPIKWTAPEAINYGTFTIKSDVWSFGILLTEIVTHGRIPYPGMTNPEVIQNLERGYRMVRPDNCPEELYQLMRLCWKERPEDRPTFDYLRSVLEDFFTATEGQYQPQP

`C=CC(=O)N1CCC[C@H]1c1nc(-c2ccc(C(=O)Nc3cc(C(F)(F)F)ccn3)cc2)c2c(N)nccn12` [Example 62, (S)-4-(3-(1-acryloylpyrrolidin-2-yl)-8-aminoimidazo[1,5-a]pyrazin-1-yl)-N-(4-(trifluoromethyl)pyridin-2-yl)benzamide] was tested. Which “EC50 Lck activity values” did it give?
The value was <1 µM.

How did the “EC50 Lck activity values” turn out when `CC#CC(=O)N1CCCC[C@H]1c1nc(-c2ccc(C(=O)Nc3cc(CCC)ccn3)cc2)c2c(N)nccn12` [Example 64, (S)-4-(8-amino-3-(1-but-2-ynoylpiperidin-2-yl)imidazo[1,5-a]pyrazin-1-yl)-N-(4-propylpyridin-2-yl)benzamide] was run?
Its value is <1 µM.

Which “EC50 Lck activity values” does the source give for `CCCc1ccnc(NC(=O)c2ccc(-c3nc([C@H](C)N(C)C(=O)/C=C/CN(C)C)n4ccnc(N)c34)cc2)c1` [Example 76, (S,E)-4-(8-amino-3-(1-(4-(dimethylamino)-N-methylbut-2-enamido)ethyl)imidazo[1,5-a]pyrazin-1-yl)-N-(4-propylpyridin-2-yl)benzamide] here?
The value was <1 µM.

How did the “EC50 Lck activity values” turn out when `Nc1nccn2c([C@@H]3CCCN3C(=O)/C=C/c3ccccc3)nc(-c3ccc(C(=O)Nc4ccccn4)cc3)c12` [Example 104, (S,E)-4-(8-amino-3-(1-cinnamoylpyrrolidin-2-yl)imidazo[1,5-a]pyrazin-1-yl)-N-(pyridin-2-yl)benzamide] was run?
Its value is <1 µM.

How did the “EC50 Lck activity values” turn out when `C=CC(=O)N1CCC[C@H]1c1nc(-c2ccc(C(=O)Nc3cc(C#N)ccn3)cc2)c2c(N)nccn12` [Example 122, (S)-4-(3-(1-acryloylpyrrolidin-2-yl)-8-aminoimidazo[1,5-a]pyrazin-1-yl)-N-(4-cyanopyridin-2-yl)benzamide] was run?
The value was <1 µM.

Which “EC50 Lck activity values” does the source give for `C=CC(=O)N1CCC[C@H]1c1nc(-c2ccc(C(=O)Nc3cc(C)ccn3)cc2)c2c(N)nccn12` [Example 124, (S)-4-(3-(1-acryloylpyrrolidin-2-yl)-8-aminoimidazo[1,5-a]pyrazin-1-yl)-N-(4-methylpyridin-2-yl)benzamide] here?
Its value is <1 µM.

Which “EC50 Lck activity values” does the source give for `C=CC(=O)N1CCC[C@H]1c1nc(-c2ccc(C(=O)Nc3cc(CCC)ccn3)cc2)c2c(N)nccn12` [Example 125, (S)-4-(3-(1-acryloylpyrrolidin-2-yl)-8-aminoimidazo[1,5-a]pyrazin-1-yl)-N-(4-propylpyridin-2-yl)benzamide] here?
Its value is <1 µM.

`CC#CC(=O)N1CCC[C@H]1c1nc(-c2ccc(C(=O)Nc3cc(-c4ccccc4)ccn3)cc2)c2c(N)nccn12` [Example 132, (S)-4-(8-amino-3-(1-but-2-ynoylpyrrolidin-2-yl)imidazo[1,5-a]pyrazin-1-yl)-N-(4-phenylpyridin-2-yl)benzamide] was tested. Which “EC50 Lck activity values” did it give?
The value was <1 µM.

target: Lyn enzyme (Homo sapiens (Human), UniProt P07948); assay: Lyn enzyme activity, IMAP fluorescence polarization assay; conditions: 60 min pre-incubation, 2 μM ATP, bin bounds in μM
Sequence (P07948 whole entry): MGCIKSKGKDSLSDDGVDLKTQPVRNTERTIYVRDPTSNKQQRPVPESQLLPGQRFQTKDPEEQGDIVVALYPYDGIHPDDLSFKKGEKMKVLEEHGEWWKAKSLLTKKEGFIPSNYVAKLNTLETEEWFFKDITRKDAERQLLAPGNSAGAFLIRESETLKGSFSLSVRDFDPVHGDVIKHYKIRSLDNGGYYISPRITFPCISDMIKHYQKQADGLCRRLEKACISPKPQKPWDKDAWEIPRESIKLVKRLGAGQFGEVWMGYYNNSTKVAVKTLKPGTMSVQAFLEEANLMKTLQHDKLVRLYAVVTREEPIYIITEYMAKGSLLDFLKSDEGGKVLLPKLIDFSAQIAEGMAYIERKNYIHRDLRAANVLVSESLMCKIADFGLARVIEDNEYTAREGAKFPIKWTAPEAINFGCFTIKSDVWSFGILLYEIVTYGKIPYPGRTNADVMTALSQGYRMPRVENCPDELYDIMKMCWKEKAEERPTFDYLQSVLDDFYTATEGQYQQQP

Which “EC50 Lyn activity values” does the source give for `C=CC(=O)N1CCC[C@H]1c1nc(-c2ccc(C(=O)Nc3cc(C)ccn3)cc2)c2c(N)nccn12` [Example 124, (S)-4-(3-(1-acryloylpyrrolidin-2-yl)-8-aminoimidazo[1,5-a]pyrazin-1-yl)-N-(4-methylpyridin-2-yl)benzamide] here?
Its value is <1 µM.

Which “EC50 Lyn activity values” does the source give for `C=CC(=O)N1CCC[C@H]1c1nc(-c2ccc(C(=O)Nc3cc(CCC)ccn3)cc2)c2c(N)nccn12` [Example 125, (S)-4-(3-(1-acryloylpyrrolidin-2-yl)-8-aminoimidazo[1,5-a]pyrazin-1-yl)-N-(4-propylpyridin-2-yl)benzamide] here?
Its value is <1 µM.
